Data from patent US20220233556A1, “COMPOSITIONS AND METHODS FOR TREATING OPHTHALMIC CONDITIONS” (Medicon Pharmaceuticals, Inc., priority 2017, published 2022).
Where two headings read alike, the source gives them in different places.

Legend:
[1] = tested on: ocular inflammation (cataract surgery plus LPS); assay: Ocular inflammation after cataract surgery plus LPS in rabbits; assay type: in vivo, New Zealand white rabbits; details: PS 3.5% nanoparticles
Method: The anti-inflammatory effect of PS in New Zealand white rabbits was evaluated following cataract surgery and administration of the proinflammatory bacterial lipopolysaccharide (LPS). Briefly, the lens was removed by phacoemulsification and aspiration and replaced with the hydrophobic acrylic intraocular lens (AR40e, AMO). Upon completion of the operation, 1 μg of LPS dissolved in 10 μl PBS was injected into the vitreous to induce uveitis.
Rabbits were treated with PS 3.5% formulated in nanoparticles or vehicle (nanoparticles without PS) applied topically as eye drops three times per day. The first application was made within 1 h after completion of surgery. The rabbits were examined daily and the aqueous humor (AH) was sampled by needle aspiration on days 1, 3, and 5 following the injection of LPS. The number of infiltrating cells in the AH was determined following standard methods. On day 5, the rabbits were euthanized and the implanted lens was removed and fixed in 2.5% glutaraldehyde and the number of inflammatory cells attached to the lens was examined under a dissecting microscope.

[2] = tested on: NF-κB; assay: NF-κB activation by EMSA in TNF-α-stimulated human conjunctival cells; assay type: cell-based; details: PS 5 h, then TNF-α 10 ng/ml, EMSA 1 h later
Method: (§1) FIGS. 6A and 6B illustrate that PS suppresses the activation of NF-κB and MAPKs. In FIG. 6A, NF-κB activation was determined by EMSA in cultured human conjunctival cells stimulated with TNFα (top) and in the ILG of rabbits with Con A-induced DED and treated for one week with either vehicle or PS (bottom). In FIG. 6B, immunoblots detecting the activation of MAPKs by phosphorylation in cultured human conjunctival cells treated with PS at the indicated concentrations for 3.5 h. Loading control: β-actin.
The Mechanism of Action of PS in Dry Eye. Tissue culture, animal and human studies have established inflammation as the core mechanism of DED. To determine the mechanism of action of PS in DED the response to PS of several factors known to play an important role in the inflammation associated with DED was explored. They include NF-κB; the cytokines TGF-β, IL-1β, IL-6 and IL-8; the collagenases MMP-1 and MMP-9; and PGE2. In these studies human conjunctival epithelial cells were used, the Wong-Kilbourne derivative of Chang conjunctival cells (clone 1 to 5c-4l American Type Culture Collection (Manassas, Va.) certified cell line, 20.2).
Human conjunctival cells were treated with various concentrations of PS. Five hours later, TNF-α was added to the culture medium to a final concentration of 10 ng/ml and the status of NF-κB activation was determined by EMSA 1 h later. […]

[3] = Biodistribution of PS in human cadaveric eyes (ex vivo), PS nanoparticle solution; assay type: in vitro ADME; details: human eye ex vivo
Method: Human cadaveric eyes were obtained through the Lions Eye Bank for Long Island, Valley Stream, N.Y. They were preserved on ice and used within 2 h from removal from the donors.
The anterior surface of the human eye (corresponding to an area slightly larger than the palpebral fissure) was brought into direct contact with a PS nanoparticle (NP) solution (PS concentrations were 0.2%, 1% and 2%) and treated as above for the solution formulations of PS. […]

[4] = tested on: NF-κB; assay: NF-κB activation in the ILG of rabbits with DED; assay type: in vivo; details: 1 week of treatment, vs vehicle
Method: as §1
Human conjunctival cells were treated with various concentrations of PS. Five hours later, TNF-α was added to the culture medium to a final concentration of 10 ng/ml and the status of NF-κB activation was determined by EMSA 1 h later. […] Similarly, after 1 week of treatment, PS suppressed NF-κB activation in the ILG of rabbits with DED compared to those treated with vehicle.

[5] = PS levels in ocular tissues (HPLC) after topical 3.5% PS Vitamin E TPGS solution; assay type: in vivo, New Zealand white rabbits; details: New Zealand white, rabbit, 3.5 % PS solution (eye drops)
Method: Composition: 3.5% PS; 16% Vitamin E TPGS (d-α-tocopheryl polyethylene glycol 1000 succinate); 3.18% mannitol; 1.2% boric acid; 0.005% polyquaternium-1 (Polyquad). Alternatively, vitamin E TPGS may be replaced by other solubilizing agents. Polyquad is added as a preservative.
Preparation Method: Polyquad and Vitamin E TPGS were dissolved in purified water followed by addition of PS and stirring at 70° C. for 30 min. Then the solution was centrifuged to remove non-dissolved drug particles and the supernatant was collected, to which mannitol and boric acid were added. The final volume was adjusted with purified water after adjusting the pH to 6.7±0.2 with NaOH.
Results: The above PS formulation was administered topically as eye drops to the eyes of New Zealand white rabbits. The levels of PS in ocular tissues 1 h and 3 h later were determined by HPLC.

[6] = Corneal levels of a PS 0.2% solution formulation after single topical application; assay type: in vivo; details: cornea, topical or ocular, 0.2 % PS solution (single application, volume not stated), mean ± SEM
Method: Another embodiment of this type of formulation is: 0.1% PS, 10% HP-β-CD, 4% Tween 80, 2.5% Vitamin E TPGS, 1.4% polyvinyl alcohol (PVA) (13,000-26,000 molecular weight), 0.001% polyquad. Another embodiment of this type of formulation is: 0.2% PS; 10% HP-β-CD; 4% Tween 80; 2.5% Vitamin E TPGS; 1.4% polyvinyl alcohol (PVA) (13,000-26,000 molecular weight); and 0.001% polyquad. Preparation method: PVA was dissolved into water by stirring at 95° C. for 6 h. All ingredients including the PVA solution and PS were added into a glass vial, stirred at 50° C. (in a water bath) for 4 h, and then stirred at RT overnight. The pH was adjusted to 7.4±0.2 with NaOH and the osmolarity to 280-320 mOsm with NaCl 18%. For a sterile final product, this solution was filtered through a […] film.
The corneal levels of a PS 0.2% formulation were determined after its single topical application to the surface of the eye.

[7] = aqueous humor, read-out: PS in Aqueous humor
[8] = choroid, read-out: PS in Choroid
[9] = conjunctiva, read-out: PS in Conjunctiva

SMILES: CCOP(=O)(OCC)OCCCCOC(=O)CC1=C(C)/C(=C/c2ccc([S+](C)[O-])cc2)c2ccc(F)cc21 (centres unmarked) [PS, phosphosulindac]
- number of inflammatory cells in AH ([1]; day 3, vehicle 24−35×10^4/ml): < 70000 mL⁻¹
- inflammatory cells attached to implanted lens ([1]; day 5): very few or no cells
- ocular inflammation (clinical appearance) ([1]; eye drops three times per day, first 24 h): essentially eliminated
- activation of NF-κB [2]: significantly suppressed
- PS in Cornea ([3]; 0.2% PS-NPs): 22.8 µM
- PS in Iris ([3]; 0.2% PS-NPs): 8.0 µM
- PS in Lens ([3]; 0.2% PS-NPs): 0.4 µM
- PS in Retina ([3]; 0.2% PS-NPs): 2.2 µM
- PS in Sclera ([3]; 0.2% PS-NPs): 30.7 µM
- PS in Cornea ([3]; 1% PS-NPs): 58.8 µM
- PS in Iris ([3]; 1% PS-NPs): 35.5 µM
- PS in Lens ([3]; 1% PS-NPs): 1.6 µM
- PS in Retina ([3]; 1% PS-NPs): 4.8 µM
- PS in Sclera ([3]; 1% PS-NPs): 152.0 µM
- PS in Cornea ([3]; 2% PS-NPs): 92.7 µM
- PS in Iris ([3]; 2% PS-NPs): 17.4 µM
- PS in Lens ([3]; 2% PS-NPs): 0.6 µM
- PS in Retina ([3]; 2% PS-NPs): 1.2 µM
- PS in Sclera ([3]; 2% PS-NPs): 113.0 µM
- NF-κB activation in the ILG [4]: suppressed
- concentration at 1 h [5, 7]: 2300 nM
- concentration at 3 h [5, 7]: 100 nM
- concentration at 1 h [5, 8]: 3200 nM
- concentration at 3 h [5, 8]: 200 nM
- concentration at 1 h [5, 9]: 9300 nM
- concentration at 3 h [5, 9]: 500 nM
- concentration at 1 h ([5]; cornea, read-out: PS in Cornea): 6900 nM
- concentration at 3 h ([5]; cornea, read-out: PS in Cornea): 800 nM
- concentration at 3 h ([5]; iris, read-out: PS in Iris): 900 nM
- concentration at 3 h ([5]; lacrimal gland, read-out: PS in Lacrimal gland): 500 nM
- concentration at 1 h ([5]; lens, read-out: PS in Lens): 1800 nM
- concentration at 3 h ([5]; lens, read-out: PS in Lens): 100 nM
- concentration at 1 h ([5]; retina, read-out: PS in Retina): 2700 nM
- concentration at 3 h ([5]; retina, read-out: PS in Retina): 200 nM
- concentration at 1 h ([5]; sclera, read-out: PS in Sclera): 2300 nM
- concentration at 3 h ([5]; sclera, read-out: PS in Sclera): 200 nM
- concentration at 1 h ([5]; vitreous body, read-out: PS in Vitreous body): 3600 nM
- Cmax [6]: 63400 ± 10000 nM
- AUC(0-t) ([6]; read-out: AUC0-t, Cornea): 62.6 ± 10.2 µM·h
- MRT inf ([6]; read-out: MRT0-inf—obs, Cornea): 60 ± 6 min
- half-life ([6]; read-out: t1/2, Cornea (converted)): 42 ± 12 min
